Data set [1] has as its target T1, Parathyroid hormone/parathyroid hormone-related peptide receptor (Homo sapiens, UniProt Q03431).
T1 sequence (Q03431 whole entry): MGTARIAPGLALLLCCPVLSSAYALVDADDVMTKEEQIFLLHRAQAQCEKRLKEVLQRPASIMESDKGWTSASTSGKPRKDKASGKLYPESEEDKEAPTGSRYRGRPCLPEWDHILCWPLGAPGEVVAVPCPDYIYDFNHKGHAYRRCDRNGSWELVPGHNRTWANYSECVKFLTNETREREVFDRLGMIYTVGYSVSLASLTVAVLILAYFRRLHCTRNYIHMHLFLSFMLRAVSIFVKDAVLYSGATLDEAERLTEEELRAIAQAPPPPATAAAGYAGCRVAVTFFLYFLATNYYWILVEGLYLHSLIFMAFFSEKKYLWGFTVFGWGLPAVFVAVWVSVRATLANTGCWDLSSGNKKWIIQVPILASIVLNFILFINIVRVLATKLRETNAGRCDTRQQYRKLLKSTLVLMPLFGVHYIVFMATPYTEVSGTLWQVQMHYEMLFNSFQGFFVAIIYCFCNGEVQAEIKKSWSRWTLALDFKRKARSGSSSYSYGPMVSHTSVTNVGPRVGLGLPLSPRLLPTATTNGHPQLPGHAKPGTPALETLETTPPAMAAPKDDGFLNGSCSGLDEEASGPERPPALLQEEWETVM
Put plainly: Antagonist activity at PTHR1 (unknown origin) expressed in CHOK1 cells co-expressing Gs/Gq assessed as reduction in human PTH (1 to 34 residues)-induced cAMP level incubated for 30 mins. In kind it is functional, cell-based, CHO-K1. For orientation: Cyclic AMP is a second messenger, typically raised through Gs and lowered through Gi signalling.

The nature of data set [2]: Metabolic stability in rat liver microsomes assessed as parent compound remaining at 1 uM in presence of NADPH generating system measured after 20 mins by LC-MS/MS analysis. Conditions: read-out: Stability. In kind it is ADME, Microsome. (In general: Liver microsomes are vesicles of endoplasmic reticulum, rich in cytochrome P450 enzymes.)
Data set [3] can be described thus: Solubility of the compound in JP1 fluid at pH 1.2. It is filed as physicochemical.
Data set [4] in a line: Solubility of the compound in JP2 buffer at pH 6.8. It is filed as physicochemical.
In another data set the target is T2, CYP1A2 (Homo sapiens, UniProt P05177).
T2 sequence (P05177 whole entry): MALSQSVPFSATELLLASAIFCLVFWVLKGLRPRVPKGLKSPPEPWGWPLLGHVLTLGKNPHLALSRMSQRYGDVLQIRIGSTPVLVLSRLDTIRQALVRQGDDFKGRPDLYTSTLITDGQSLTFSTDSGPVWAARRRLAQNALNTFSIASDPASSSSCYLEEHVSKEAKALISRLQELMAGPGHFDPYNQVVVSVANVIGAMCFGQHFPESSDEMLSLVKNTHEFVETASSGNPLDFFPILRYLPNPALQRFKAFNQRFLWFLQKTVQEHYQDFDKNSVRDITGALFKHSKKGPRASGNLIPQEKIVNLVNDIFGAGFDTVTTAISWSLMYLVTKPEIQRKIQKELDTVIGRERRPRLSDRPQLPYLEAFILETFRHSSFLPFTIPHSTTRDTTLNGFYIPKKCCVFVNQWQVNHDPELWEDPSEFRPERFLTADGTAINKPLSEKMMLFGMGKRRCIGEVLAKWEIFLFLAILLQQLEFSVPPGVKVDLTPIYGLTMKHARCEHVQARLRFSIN
Put plainly: Inhibition of CYP1A2 (unknown origin) at 10 uM relative to control. It is filed as ADME.

The target of the next data set is T3, CYP2C8 (Homo sapiens, UniProt P10632).
T3 sequence (P10632 whole entry): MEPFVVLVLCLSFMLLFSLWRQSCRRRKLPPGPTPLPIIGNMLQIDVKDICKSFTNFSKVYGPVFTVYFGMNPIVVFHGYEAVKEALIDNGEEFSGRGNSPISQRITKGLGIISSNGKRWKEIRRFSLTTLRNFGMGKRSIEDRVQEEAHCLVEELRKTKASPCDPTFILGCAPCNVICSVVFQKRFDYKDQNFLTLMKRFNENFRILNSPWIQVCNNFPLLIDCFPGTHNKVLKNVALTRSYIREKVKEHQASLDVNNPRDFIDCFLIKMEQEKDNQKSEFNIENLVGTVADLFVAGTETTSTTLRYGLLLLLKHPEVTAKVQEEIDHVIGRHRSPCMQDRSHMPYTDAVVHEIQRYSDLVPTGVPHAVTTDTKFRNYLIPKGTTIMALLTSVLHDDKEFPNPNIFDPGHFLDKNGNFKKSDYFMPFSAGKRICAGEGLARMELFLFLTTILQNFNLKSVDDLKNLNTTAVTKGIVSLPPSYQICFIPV
As to the kind of experiment: Inhibition of CYP2C8 (unknown origin) at 10 uM relative to control. In kind it is ADME.

A further data set has as its target CYP2C9 (Homo sapiens, UniProt P11712). Put plainly: Inhibition of CYP2C9 (unknown origin) at 10 uM relative to control. It is filed as ADME.
The target of the next data set is CYP2C19 (Homo sapiens, UniProt P33261). As to the kind of experiment: Inhibition of CYP2C19 (unknown origin) at 10 uM relative to control. In kind it is ADME.
Chain of CYP2C19 (P33261 whole entry): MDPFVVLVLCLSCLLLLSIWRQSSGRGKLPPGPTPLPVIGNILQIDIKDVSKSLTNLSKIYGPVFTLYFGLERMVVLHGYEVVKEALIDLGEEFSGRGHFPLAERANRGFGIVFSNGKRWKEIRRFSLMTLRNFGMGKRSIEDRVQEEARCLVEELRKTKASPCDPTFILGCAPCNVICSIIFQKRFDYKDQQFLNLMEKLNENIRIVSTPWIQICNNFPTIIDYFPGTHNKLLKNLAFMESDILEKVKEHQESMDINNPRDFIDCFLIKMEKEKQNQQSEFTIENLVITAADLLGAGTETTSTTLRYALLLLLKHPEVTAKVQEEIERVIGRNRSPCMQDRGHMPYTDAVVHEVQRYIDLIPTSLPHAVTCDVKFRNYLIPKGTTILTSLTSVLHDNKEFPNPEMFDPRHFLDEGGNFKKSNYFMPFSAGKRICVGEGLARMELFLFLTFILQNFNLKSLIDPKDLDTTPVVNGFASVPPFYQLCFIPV
The target of another data set is CYP2D6 (Homo sapiens, UniProt P10635). Put plainly: Inhibition of CYP2D6 (unknown origin) at 10 uM relative to control. In kind it is ADME.
Chain of CYP2D6 (P10635 whole entry): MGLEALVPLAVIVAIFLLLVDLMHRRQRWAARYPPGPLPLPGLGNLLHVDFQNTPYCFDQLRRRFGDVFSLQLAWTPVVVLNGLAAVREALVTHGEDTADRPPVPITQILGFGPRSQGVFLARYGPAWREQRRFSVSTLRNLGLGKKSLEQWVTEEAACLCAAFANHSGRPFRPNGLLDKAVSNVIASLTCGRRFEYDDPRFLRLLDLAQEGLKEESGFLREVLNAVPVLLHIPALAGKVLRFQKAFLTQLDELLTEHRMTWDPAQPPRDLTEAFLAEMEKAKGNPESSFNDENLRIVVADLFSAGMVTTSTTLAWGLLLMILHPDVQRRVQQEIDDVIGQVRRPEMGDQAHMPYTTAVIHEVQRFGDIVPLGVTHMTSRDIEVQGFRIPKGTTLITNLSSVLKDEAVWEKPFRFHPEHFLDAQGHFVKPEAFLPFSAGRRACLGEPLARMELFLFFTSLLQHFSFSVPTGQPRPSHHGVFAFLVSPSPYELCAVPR
Another data set deals with CYP3A4 (Homo sapiens, UniProt P08684). As to the kind of experiment: Inhibition of CYP3A4 (unknown origin) at 10 uM relative to control. In kind it is ADME.
Chain of CYP3A4 (P08684 whole entry): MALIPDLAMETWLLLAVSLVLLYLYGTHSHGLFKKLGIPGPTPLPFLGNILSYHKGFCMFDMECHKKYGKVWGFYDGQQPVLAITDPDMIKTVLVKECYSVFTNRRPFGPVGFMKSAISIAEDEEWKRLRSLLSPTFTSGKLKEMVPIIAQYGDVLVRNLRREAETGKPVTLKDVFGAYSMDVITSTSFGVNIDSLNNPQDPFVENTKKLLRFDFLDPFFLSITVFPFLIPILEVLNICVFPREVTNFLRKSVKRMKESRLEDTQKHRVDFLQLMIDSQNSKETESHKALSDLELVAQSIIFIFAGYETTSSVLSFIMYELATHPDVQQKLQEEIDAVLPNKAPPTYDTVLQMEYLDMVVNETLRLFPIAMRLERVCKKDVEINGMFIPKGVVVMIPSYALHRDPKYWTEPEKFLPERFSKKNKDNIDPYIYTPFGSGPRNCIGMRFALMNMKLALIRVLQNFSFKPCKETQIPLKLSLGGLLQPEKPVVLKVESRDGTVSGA
Data set [5] can be described thus: 1-Octanol/PBS buffer distribution coefficient, log D of the compound at pH 7.4. It is filed as physicochemical.
Data set [6] is described as follows: Plasma clearance in Sprague-Dawley rat at 1 mg/kg, iv by LC-MS/MS analysis. In kind it is ADME, organism-based.
The nature of data set [7]: Volume of distribution at steady state in Sprague-Dawley rat at 1 mg/kg, iv by LC-MS/MS analysis. As to conditions: in vivo, read-out: Vdss. It is filed as ADME, organism-based.
Data set [8] is described as follows: Elimination half life in Sprague-Dawley rat at 5 mg/kg, po by LC-MS/MS analysis. In kind it is ADME, organism-based. As to conditions: in vivo, read-out: BBB (converted).
Data set [9] is described as follows: AUClast in Sprague-Dawley rat at 5 mg/kg, po by LC-MS/MS analysis. It is filed as ADME, organism-based. As to conditions: in vivo. Details: dose 5 mg/kg, time 0 - last, route oral.
A short description of data set [10]: Oral bioavailability in Sprague-Dawley rat at 10 mg/kg by LC-MS/MS analysis. It is filed as ADME, organism-based. Conditions: in vivo.
Data set [11] in a line: Drug degradation in HCL/CH2Cl2 by TLC analysis. As to conditions: read-out: Drug degradation. It is filed as physicochemical.

These results are taken from ChEMBL document CHEMBL4619754, “Discovery of novel, potent, and orally bioavailable pyrido[2,3-d][1]benzazepin-6-one antagonists for parathyroid hormone receptor 1” (Bioorg Med Chem, 2020).

The IC50 is the concentration needed to halve the response being measured. A word on the solubility: it is the dissolved amount per volume that the medium holds. A low value points to a poorly soluble substance. In general, inhibition refers to the drop in the measured response relative to a control, in per cent. For orientation: logD means the decadic logarithm of the distribution of all forms, ionised or not, between an organic phase and buffer at a given pH. In general, clearance refers to the volume of plasma or blood freed of the substance per unit of time. Low values mean a low capacity for elimination, high ones a high capacity for elimination. One may read the AUC(0-t) as the area under the concentration-time curve up to a stated or last time point. A lower AUC(0-t) goes with less exposure. Broadly, the bioavailability is the share of a dose that reaches the circulation, judged against a reference dose that is usually intravenous. A high value points to good availability.

Converted amounts (≈) assume the structure as drawn.

Chain of CYP2C9 (P11712 whole entry): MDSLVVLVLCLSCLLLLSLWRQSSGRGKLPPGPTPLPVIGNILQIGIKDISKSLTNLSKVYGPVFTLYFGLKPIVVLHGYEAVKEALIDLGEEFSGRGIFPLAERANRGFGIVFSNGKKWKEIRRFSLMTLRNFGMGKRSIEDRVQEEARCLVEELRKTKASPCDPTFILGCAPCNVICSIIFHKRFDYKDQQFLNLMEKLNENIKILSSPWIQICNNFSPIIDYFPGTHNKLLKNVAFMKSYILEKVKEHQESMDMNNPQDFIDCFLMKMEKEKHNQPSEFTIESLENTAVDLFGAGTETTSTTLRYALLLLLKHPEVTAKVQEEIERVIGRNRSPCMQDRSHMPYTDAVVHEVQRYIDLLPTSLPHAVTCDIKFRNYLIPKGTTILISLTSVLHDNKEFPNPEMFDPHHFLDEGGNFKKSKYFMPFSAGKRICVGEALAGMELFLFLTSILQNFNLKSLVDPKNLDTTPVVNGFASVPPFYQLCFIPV

In the case of `CC(C)N1N=C(C2CCCCC2)c2ccc(Cl)cc2N(c2ccc(NCCNC3CCOCC3)cn2)C1=O`, in [1], the IC50 was determined as 4.37 µM.

Consider `CC1(C)C(=O)N(c2ccc(NCCNC3CCOCC3)cc2)c2cc(Cl)ccc2-c2cc(Cl)ccc21`, for which, in [2], the remaining at 20 min, 1 µM was found to be 75%. The solubility was 36 µg/mL (≈ 68.6 µM) in data set [3] and 4.7 µg/mL (≈ 8.96 µM) in data set [4].

`COc1ccc2c(c1)N(c1ccc(NCCNC3CCOCC3)cc1)C(=O)C(C)(C)c1ncc(Cl)cc1-2`: in data set [2], the remaining at 20 min, 1 µM is 59%. Moreover, the solubility in data set [3] was 250 µg/mL (≈ 480 µM); in data set [4], 3.8 µg/mL (≈ 7.29 µM).

In the case of `CC1(C)C(=O)N(c2ccc(NCCNC3CCOCC3)cc2)c2cc(Cl)ccc2-c2cc(F)cnc21`, the remaining at 20 min, 1 µM in data set [2] was 19%. For the same molecule, the results for the solubility in [3] and in data set [4] were 920 µg/mL (≈ 1810 µM) and 470 µg/mL (≈ 923 µM), respectively.

`CC1(C)C(=O)N(c2ccc(NCCNC3CCOCC3)cc2)c2cc(F)ccc2-c2cc(Cl)cnc21`: the remaining at 20 min, 1 µM in [2] amounted to 42%. Moreover, the solubility in data set [3] came to 960 µg/mL (≈ 1890 µM); in data set [4], 380 µg/mL (≈ 747 µM).

As to `CC1(C)C(=O)N(c2ccc(NCCNC3CCOCC3)cc2)c2cc(Cl)ccc2-c2cc(Cl)cnc21`, in data set [2], the remaining at 20 min, 1 µM was found to be 65%. Also, the values for the solubility in data set [3] and in [4] were 570 µg/mL (≈ 1080 µM) and 77 µg/mL (≈ 147 µM), respectively. Also, the inhibition at 10 µM at CYP1A2, against CYP2C8, on CYP2C9, against CYP2C19, against CYP2D6 and at CYP3A4 was less than 50% in each case. In [5], this molecule yielded a logD of 3.5. This molecule had a clearance in data set [6] of 39 mL/min/kg. Moreover, the Vd in [7] stood at 29.4 L/kg. Moreover, the half-life in data set [8] was 13.1 h. In [9], this molecule showed an AUC(0-t) of 2500 ng·h/mL. In addition, the bioavailability in data set [10] was determined as 61%.

`CC1(C)C(=O)N(c2ccc(NCCNC3CCOCC3)cc2)c2cc(C#N)ccc2-c2cc(Cl)cnc21`: in [2], the remaining at 20 min, 1 µM came to 34%. Besides, the figures for the solubility in [3] and in data set [4] were 990 µg/mL (≈ 1920 µM) and 720 µg/mL (≈ 1400 µM), respectively.

In the case of `Cc1ccc2c(c1)N(c1ccc(NCCNC3CCOCC3)cc1)C(=O)C(C)(C)c1ncc(Cl)cc1-2`, the remaining at 20 min, 1 µM in data set [2] came to 52%. For the same molecule, the solubility in data set [3] worked out at 870 µg/mL (≈ 1720 µM); in [4], 24 µg/mL (≈ 47.5 µM).

On to `CC1(C)N=C(C2CCCCC2)c2ccc(C#N)cc2N(c2ccc(NCCNC3CCOCC3)cc2)C1=O`, for which the remaining at 20 min, 1 µM in data set [2] was found to be 28%. For the same molecule, the degraded in data set [11] turned out to be 100%.

With `CC1(C)C=C(C2CCCCC2)c2ccc(Cl)cc2N(c2ccc(NCCNC3CCOCC3)cc2)C1=O`, in data set [1], the IC50 came to 0.97 µM. For the same molecule, the remaining at 20 min, 1 µM in data set [2] came out at 58%.

For the molecule `CC1(C)C=C(C2CCCCC2)c2ccc(C#N)cc2N(c2ccc(NCCNC3CCOCC3)cc2)C1=O`, the IC50 in [1] came out at 8.8 µM. Further, the remaining at 20 min, 1 µM in [2] was determined as 97%.

On to `CC1(C)C(=O)N(c2ccc(NCCNC3CCOCC3)cc2)c2cc(Cl)ccc2-c2ccccc21`, for which the IC50 in data set [1] worked out at 3.2 µM. Further, in data set [2], the remaining at 20 min, 1 µM worked out at 21%. Moreover, the results for the solubility in [3] and in data set [4] were 83 µg/mL (≈ 169 µM) and 9.1 µg/mL (≈ 18.6 µM), respectively.

In the case of `Cc1cnc2c(c1)-c1ccc(Cl)cc1N(c1ccc(NCCNC3CCOCC3)cc1)C(=O)C2(C)C`, in data set [2], the remaining at 20 min, 1 µM turned out to be 62%. Besides, the results for the solubility in [3] and in [4] were more than 980 µg/mL and 510 µg/mL (≈ 1010 µM), respectively.
